Assay results reported in ChEMBL document CHEMBL3885861, “Open TG-GATES”.

Organism: Rattus norvegicus
Experiment: Open TG-GATES - Regimen: Daily Repeat
Assay type: toxicity, organism-based, Sprague-Dawley
Set-up: regimen Daily Repeat, gender Male, age 6 weeks
Conditions: in vivo, po, route gavage; for APTT / Bas / Eos / Fbg / Hb / Ht / Lym / MCH / MCHC / MCV / Mono / Neu / PT / Plat / RBC / Ret / WBC: tissue Blood; for KIDNEY_L / KIDNEY_R / KIDNEY_TOTAL: tissue Kidney; for LIVER: tissue Liver; for A/G / ALP / ALT / AST / BUN / CRE / Ca / Cl / DBIL / GLC / IP / K / LDH / Na / PL / RALB / TBIL / TC / TG / TP / gamma-GTP: tissue Plasma
[1] = 2 mg/kg, 72 h, dose level Middle, time 3 day
[2] = 2 mg/kg, […], dose level Middle, time 7 day
[3] = 2 mg/kg, […], dose level Middle, time 14 day
[4] = 2 mg/kg, […], dose level Middle, time 28 day
[5] = 6 mg/kg, 72 h, dose level High, time 3 day
[6] = 6 mg/kg, […], dose level High, time 7 day
[7] = 6 mg/kg, […], dose level High, time 14 day
[8] = 6 mg/kg, […], dose level High, time 28 day

O=NN(CCCl)C(=O)NC1CCCCC1 [LOMUSTINE]
TERMINAL_BW [1]: 220 g
APTT [1]: 16.8 s
Bas [1]: 0%
Eos [1]: 0.8%
Fbg [1]: 231.8 mg/dL
Hb [1]: 13.3 g/dL
Ht [1]: 39.9%
Lym [1]: 82.4%
MCH [1]: 21.1 pg
MCHC [1]: 33.2%
MCV [1]: 63.7 fL
Mono [1]: 7.4%
Neu [1]: 9.6%
PT [1]: 11.7 s
Plat [1]: 108 x10_4/uL
RBC [1]: 628 x10_4/ul
Ret [1]: 6.9%
WBC [1]: 109.9 x10_2/uL
KIDNEY_L [1]: 1 g
KIDNEY_R [1]: 1 g
KIDNEY_TOTAL [1]: 2 g
LIVER [1]: 11.4 g
A/G [1]: 2
ALP [1]: 962.6 IU/L
ALT [1]: 29.8 IU/L
AST [1]: 59.4 IU/L
BUN [1]: 17 mg/dL
CRE [1]: 0.4 mg/dL
Ca [1]: 11 mg/dL
Cl [1]: 105.8 meq/L
DBIL [1]: 0.01 mg/dL
GLC [1]: 186.2 mg/dL
IP [1]: 7.9 mg/dL
K [1]: 4.7 meq/L
LDH [1]: 84 IU/L
Na [1]: 139.4 meq/L
PL [1]: 152.8 mg/dL
RALB [1]: 4 g/dL
TBIL [1]: 0.4 mg/dL
TC [1]: 83.2 mg/dL
TG [1]: 100.8 mg/dL
TP [1]: 5.9 g/dL
gamma-GTP [1]: 1.4 IU/L
TERMINAL_BW [2]: 246.4 g
TERMINAL_BW [3]: 298.5 g
TERMINAL_BW [4]: 364.6 g
APTT [2]: 15.6 s
Bas [2]: 0%
Eos [2]: 1%
Fbg [2]: 246.8 mg/dL
Hb [2]: 13.9 g/dL
Ht [2]: 42%
Lym [2]: 80%
MCH [2]: 21 pg
MCHC [2]: 33.3%
MCV [2]: 63.2 fL
Mono [2]: 7.4%
Neu [2]: 11.6%
PT [2]: 11.4 s
Plat [2]: 98.8 x10_4/uL
RBC [2]: 664.2 x10_4/ul
Ret [2]: 5.1%
WBC [2]: 103.8 x10_2/uL
APTT [3]: 16.4 s
Bas [3]: 0%
Eos [3]: 0.6%
Fbg [3]: 228.4 mg/dL
Hb [3]: 14.3 g/dL
Ht [3]: 42.9%
Lym [3]: 81.8%
MCH [3]: 20.3 pg
MCHC [3]: 33.2%
MCV [3]: 61.2 fL
Mono [3]: 5.8%
Neu [3]: 11.8%
PT [3]: 11.4 s
Plat [3]: 129.2 x10_4/uL
RBC [3]: 701.8 x10_4/ul
Ret [3]: 4.3%
WBC [3]: 127.6 x10_2/uL
APTT [4]: 16 s
Bas [4]: 0%
Eos [4]: 1%
Fbg [4]: 230.4 mg/dL
Hb [4]: 14.9 g/dL
Ht [4]: 44.4%
Lym [4]: 80%
MCH [4]: 19 pg
MCHC [4]: 33.5%
MCV [4]: 56.9 fL
Mono [4]: 7.6%
Neu [4]: 11.6%
PT [4]: 11.3 s
Plat [4]: 113.9 x10_4/uL
RBC [4]: 780.6 x10_4/ul
Ret [4]: 2.5%
WBC [4]: 145.6 x10_2/uL
KIDNEY_L [2]: 1 g
KIDNEY_R [2]: 1 g
KIDNEY_TOTAL [2]: 2 g
KIDNEY_L [3]: 1.2 g
KIDNEY_R [3]: 1.2 g
KIDNEY_TOTAL [3]: 2.5 g
KIDNEY_L [4]: 1.4 g
KIDNEY_R [4]: 1.4 g
KIDNEY_TOTAL [4]: 2.7 g
LIVER [2]: 13 g
LIVER [3]: 14.1 g
LIVER [4]: 16.6 g
A/G [2]: 1.7
ALP [2]: 976.4 IU/L
ALT [2]: 47.2 IU/L
AST [2]: 85.8 IU/L
BUN [2]: 19.6 mg/dL
CRE [2]: 0.4 mg/dL
Ca [2]: 11.2 mg/dL
Cl [2]: 105.8 meq/L
DBIL [2]: 0.016 mg/dL
GLC [2]: 181.8 mg/dL
IP [2]: 7.7 mg/dL
K [2]: 4.6 meq/L
LDH [2]: 87 IU/L
Na [2]: 139.8 meq/L
PL [2]: 169.6 mg/dL
RALB [2]: 3.8 g/dL
TBIL [2]: 0.3 mg/dL
TC [2]: 98.8 mg/dL
TG [2]: 95.6 mg/dL
TP [2]: 6.1 g/dL
gamma-GTP [2]: 2.2 IU/L
A/G [3]: 2.1
ALP [3]: 822.6 IU/L
ALT [3]: 36.2 IU/L
AST [3]: 66.8 IU/L
BUN [3]: 17.4 mg/dL
CRE [3]: 0.5 mg/dL
Ca [3]: 11.4 mg/dL
Cl [3]: 106.4 meq/L
DBIL [3]: 0.032 mg/dL
GLC [3]: 183.8 mg/dL
IP [3]: 7.3 mg/dL
K [3]: 4.6 meq/L
LDH [3]: 94.8 IU/L
Na [3]: 140.2 meq/L
PL [3]: 166 mg/dL
RALB [3]: 4.1 g/dL
TBIL [3]: 0.3 mg/dL
TC [3]: 77.2 mg/dL
TG [3]: 136 mg/dL
TP [3]: 6.1 g/dL
gamma-GTP [3]: 2.4 IU/L
A/G [4]: 1.7
ALP [4]: 637.8 IU/L
ALT [4]: 61.4 IU/L
AST [4]: 115.8 IU/L
BUN [4]: 19.6 mg/dL
CRE [4]: 0.4 mg/dL
Ca [4]: 11.1 mg/dL
Cl [4]: 106.8 meq/L
DBIL [4]: 0.054 mg/dL
GLC [4]: 186.6 mg/dL
IP [4]: 6.3 mg/dL
K [4]: 4.5 meq/L
LDH [4]: 163 IU/L
Na [4]: 139.8 meq/L
PL [4]: 192.4 mg/dL
RALB [4]: 4.1 g/dL
TBIL [4]: 0.3 mg/dL
TC [4]: 106.6 mg/dL
TG [4]: 85.4 mg/dL
TP [4]: 6.5 g/dL
gamma-GTP [4]: 3.6 IU/L
TERMINAL_BW [5]: 213.1 g
APTT [5]: 16.1 s
Bas [5]: 0%
Eos [5]: 0.6%
Fbg [5]: 212.8 mg/dL
Hb [5]: 13 g/dL
Ht [5]: 38.9%
Lym [5]: 86%
MCH [5]: 21.3 pg
MCHC [5]: 33.3%
MCV [5]: 64.1 fL
Mono [5]: 5.6%
Neu [5]: 8%
PT [5]: 11.9 s
Plat [5]: 114.8 x10_4/uL
RBC [5]: 607.2 x10_4/ul
Ret [5]: 6.1%
WBC [5]: 100.8 x10_2/uL
KIDNEY_L [5]: 1 g
KIDNEY_R [5]: 1 g
KIDNEY_TOTAL [5]: 2 g
LIVER [5]: 10.2 g
A/G [5]: 2.2
ALP [5]: 1003.2 IU/L
ALT [5]: 30.4 IU/L
AST [5]: 65 IU/L
BUN [5]: 15.6 mg/dL
CRE [5]: 0.5 mg/dL
Ca [5]: 10.8 mg/dL
Cl [5]: 104.8 meq/L
DBIL [5]: 0.028 mg/dL
GLC [5]: 179 mg/dL
IP [5]: 9 mg/dL
K [5]: 4.7 meq/L
LDH [5]: 105.4 IU/L
Na [5]: 139 meq/L
PL [5]: 136.6 mg/dL
RALB [5]: 3.9 g/dL
TBIL [5]: 0.3 mg/dL
TC [5]: 75.6 mg/dL
TG [5]: 56.4 mg/dL
TP [5]: 5.8 g/dL
gamma-GTP [5]: 1.8 IU/L
TERMINAL_BW [6]: 225.8 g
TERMINAL_BW [7]: 229.7 g
TERMINAL_BW [8]: 202.6 g
APTT [6]: 15.7 s
Bas [6]: 0%
Eos [6]: 0.4%
Fbg [6]: 237.4 mg/dL
Hb [6]: 14.3 g/dL
Ht [6]: 43.1%
Lym [6]: 80.6%
MCH [6]: 20.9 pg
MCHC [6]: 33.3%
MCV [6]: 62.9 fL
Mono [6]: 8.8%
Neu [6]: 10.2%
PT [6]: 11.7 s
Plat [6]: 124 x10_4/uL
RBC [6]: 686.4 x10_4/ul
Ret [6]: 3.4%
WBC [6]: 73.5 x10_2/uL
APTT [7]: 15.8 s
Bas [7]: 0%
Eos [7]: 0.6%
Fbg [7]: 237.4 mg/dL
Hb [7]: 15.1 g/dL
Ht [7]: 44.8%
Lym [7]: 75.4%
MCH [7]: 20.1 pg
MCHC [7]: 33.7%
MCV [7]: 59.8 fL
Mono [7]: 14.4%
Neu [7]: 9.6%
PT [7]: 11.2 s
Plat [7]: 133.2 x10_4/uL
RBC [7]: 750 x10_4/ul
Ret [7]: 1.2%
WBC [7]: 75.3 x10_2/uL
APTT [8]: 15.2 s
Bas [8]: 0%
Eos [8]: 0.8%
Fbg [8]: 255.7 mg/dL
Hb [8]: 15.6 g/dL
Ht [8]: 45.3%
Lym [8]: 58.5%
MCH [8]: 18.9 pg
MCHC [8]: 34.5%
MCV [8]: 54.6 fL
Mono [8]: 22.5%
Neu [8]: 18.8%
PT [8]: 11.6 s
Plat [8]: 121.1 x10_4/uL
RBC [8]: 832.2 x10_4/ul
Ret [8]: 2.5%
WBC [8]: 114.2 x10_2/uL
KIDNEY_L [6]: 1 g
KIDNEY_R [6]: 1 g
KIDNEY_TOTAL [6]: 2.1 g
KIDNEY_L [7]: 1.1 g
KIDNEY_R [7]: 1.1 g
KIDNEY_TOTAL [7]: 2.1 g
KIDNEY_L [8]: 1.4 g
KIDNEY_R [8]: 1.3 g
KIDNEY_TOTAL [8]: 2.7 g
LIVER [6]: 10.6 g
LIVER [7]: 10.5 g
LIVER [8]: 9.5 g
A/G [6]: 1.7
ALP [6]: 656.6 IU/L
ALT [6]: 48.4 IU/L
AST [6]: 97 IU/L
BUN [6]: 16.6 mg/dL
CRE [6]: 0.5 mg/dL
Ca [6]: 11.2 mg/dL
Cl [6]: 105.6 meq/L
DBIL [6]: 0.03 mg/dL
GLC [6]: 170.4 mg/dL
IP [6]: 7.3 mg/dL
K [6]: 4.7 meq/L
LDH [6]: 139.6 IU/L
Na [6]: 139.2 meq/L
PL [6]: 156 mg/dL
RALB [6]: 3.8 g/dL
TBIL [6]: 0.3 mg/dL
TC [6]: 98.4 mg/dL
TG [6]: 55.8 mg/dL
TP [6]: 6.1 g/dL
gamma-GTP [6]: 2.6 IU/L
A/G [7]: 1.6
ALP [7]: 694.4 IU/L
ALT [7]: 101.6 IU/L
AST [7]: 223.6 IU/L
BUN [7]: 23.4 mg/dL
CRE [7]: 0.6 mg/dL
Ca [7]: 11.3 mg/dL
Cl [7]: 105.8 meq/L
DBIL [7]: 0.3 mg/dL
GLC [7]: 159.8 mg/dL
IP [7]: 6.4 mg/dL
K [7]: 4.7 meq/L
LDH [7]: 210.6 IU/L
Na [7]: 139.6 meq/L
PL [7]: 236.8 mg/dL
RALB [7]: 3.8 g/dL
TBIL [7]: 0.4 mg/dL
TC [7]: 159.8 mg/dL
TG [7]: 48.2 mg/dL
TP [7]: 6.2 g/dL
gamma-GTP [7]: 4.6 IU/L
A/G [8]: 1.3
ALP [8]: 520.8 IU/L
ALT [8]: 153.2 IU/L
AST [8]: 484.2 IU/L
BUN [8]: 31.2 mg/dL
CRE [8]: 0.2 mg/dL
Ca [8]: 11.3 mg/dL
Cl [8]: 106.2 meq/L
DBIL [8]: 3.9 mg/dL
GLC [8]: 137 mg/dL
IP [8]: 5.9 mg/dL
K [8]: 4.8 meq/L
LDH [8]: 298.8 IU/L
Na [8]: 142.2 meq/L
PL [8]: 301 mg/dL
RALB [8]: 3.5 g/dL
TBIL [8]: 3.3 mg/dL
TC [8]: 207.2 mg/dL
TG [8]: 118 mg/dL
TP [8]: 6.1 g/dL
gamma-GTP [8]: 11.8 IU/L
